Assay results reported in ChEMBL document CHEMBL3507680, “University of Dundee, Gates Library screen for HepG2 cell viability”.

Test: Human HepG2 cell viability assay in 384 well format
Type: toxicity, cell-based
Set-up: dose 125 nL, time 70.5 hour; cytotoxicity at 70.5 h: concentration not given beside the values
Conditions: HepG2 cells, read-out: Inhibition

Compound	cytotoxicity at 70.5 h [%]
CCOCCCC(=O)Nc1ccc(OCc2noc(C3CC3)n2)cc1	7.14
CCOCCNC(=O)Nc1ccc(OCc2noc(C3CC3)n2)cc1	-7.9
COCCCNC(=O)Nc1ccc(OCc2noc(C3CC3)n2)cc1	-11.8
O=C(Cc1ccccc1Br)NCC(=O)Nc1cn[nH]c1	-6.36
O=C(Cc1ccc(Br)s1)NCC(=O)Nc1cn[nH]c1	-9.18
N#CC1COCCN1S(=O)(=O)c1ccc(F)c(Br)c1 (stereo unspecified)	-9.56
CN(C)c1cccc(C2CCCN2c2nc3c(cnn3C)c(=O)[nH]2)c1 (stereo unspecified)	15.4
CC(C)Cn1cc(NC(=O)NC(C)(C)c2nccs2)cn1	-6.56
CC(C)(NC(=O)Nc1cnn(CC2CCCO2)c1)c1nccs1 (stereo unspecified)	-6.03
CN(Cc1c(Cl)ccc2cccnc12)CC(C)(CO)CO	-10.4
c1cc(CCn2ccc(NC3CCSCC3)n2)ccn1	-3.19
Cc1ncc(C(=O)Nc2cncnc2N(C)C)c(Cl)c1Cl	-9.76
CC(NCCc1nccn1Cc1ccccc1)c1ccsc1 (stereo unspecified)	-10.7
CC(C)CCn1ccc(NC2CCSC2)n1 (stereo unspecified)	-8.47
Cc1nn(-c2ccc(F)cc2)c2[nH]nc(N)c12	8.73
NC(=O)c1ccnc(N2CCN(Cc3ccc(F)cc3Cl)CC2)c1	-15.2
CCOc1ccc(Cl)c(C(=O)NC(C(N)=O)c2ccccc2)n1 (stereo unspecified)	14.2
Cc1cc(S(C)(=O)=O)c(C)c(S(=O)(=O)NC2CCCC2)c1	-8.42
Cc1nnc(CN2CCN(Cc3nccn3C)CC2)n1C	-8.45
Cc1cc(NC(=O)N2CCN(C)CC2C)n(CCC#N)n1 (stereo unspecified)	18.4
Cc1cc(NC(=O)N2CCN(C)CC2C)n(C)n1 (stereo unspecified)	-6.62
Cc1[nH]n(-c2ccccc2)c2nnc(N)c1-2	-2.04

Compound	cytotoxicity at 70.5 h [%]
CSc1ccsc1C(=O)NC(Cc1ccccc1)C(N)=O (stereo unspecified)	-1.87
CN(CCN1CCN(c2ccccc2)CC1)C(=O)Nc1ccccn1	17.7
Cc1ccc(CNC(=O)N(C)Cc2ccc([S+](C)[O-])cc2)s1 (stereo unspecified)	-6.72
COC(=O)c1cccc(CNC(=O)CC(F)(F)F)c1	-5.17
OC1(CNCc2ccc(F)c(C(F)(F)F)c2)CCOC1 (stereo unspecified)	-2.64
COc1cccc(Cn2cccc(C#N)c2=O)c1	-7
CCc1cccc(OCCn2cccc(C#N)c2=O)c1	-8.55
CCc1nnc(SCC(=O)Nc2cc(C(C)(C)C)nn2C)[nH]1	-5.12
CCc1ocnc1C(=O)N1CCC2(CC1)OCC(C)O2 (stereo unspecified)	-5.57
Cc1csc(CNC(=O)N(C)Cc2ccc([S+](C)[O-])cc2)n1 (stereo unspecified)	-5.11
COc1ccc(-c2nnc(C(C)N3CCC4(CC3)OCCO4)o2)cc1 (stereo unspecified)	-10.3
O=C(NCC(O)COc1cccc(F)c1)C1(c2ccc(F)cc2)CC1 (stereo unspecified)	-12
Cc1cccc(CN(Cn2nc(C)c3c(C)onc3c2=O)C2CC2)c1	-13.7
CNC(=O)c1cccc(NC(=O)NCc2ccc(SC)cc2)c1C	-7.01
Cc1cnn(C2CN(c3nc(C)cc(N(C)C)n3)C2)c1	0.987
NC(=O)C1CN(Cc2c(O)ccc3oc4c(c23)CCCC4)CCO1 (stereo unspecified)	-5.87
Cc1ccc(CCNC(=O)NCc2cccc(OC(F)F)c2)cn1	-8.89
COc1cc2nc(NCc3cc(C)on3)nc(N)c2cc1OC	34.1
CCOc1ccc(NC(=O)NC2CCc3nc(C)nn3C2)cc1Cl (stereo unspecified)	-2.45
CCc1ccc(C2COCCN2C(=O)Nc2cccc(C(C)=O)c2)o1 (stereo unspecified)	-1.25
Cc1nonc1NC(=O)C1SCCc2ccccc21 (stereo unspecified)	2.97
CCc1ccc(C2COCCN2C(=O)Nc2cc(C)on2)o1 (stereo unspecified)	-3.5

Compound	cytotoxicity at 70.5 h [%]
NC(=O)CN1CCC(NC2CCCCc3ccccc32)CC1 (stereo unspecified)	5.24
OCCNC1CSCCc2ccccc21 (stereo unspecified)	33.4
O=C(NCc1cc(Cl)ccn1)NCc1ccco1	13.9
CS(=O)(=O)NCCNC(=O)NC1(c2ccc(Cl)cc2)CCC1	16.5
Cc1nn(CN(Cc2ccsc2)C2CC2)c(=O)c2noc(C)c12	-8.61
OCCOc1ccc(NCc2cccnc2)cn1	24.6
CCCNC(=O)CCNC1CSCCc2ccccc21 (stereo unspecified)	-2.78
CCS(=O)(=O)NCCCNC1CSCCc2ccccc21 (stereo unspecified)	-7.41
COCc1nccc(C2CCCN(Cc3cccc(C#N)c3)C2)n1 (stereo unspecified)	-9.48
N#Cc1ccc(S(=O)(=O)NCCn2ccnc2)cc1Cl	-0.547
O=C(NCc1ccccc1CN1CCCC1)Nc1nncs1	3.29
Cn1c(=O)ccn(CC(=O)Nc2cnccc2O)c1=O	-4.1
CC(Cn1ccnc1)NS(=O)(=O)c1ccc(C#N)c(Cl)c1 (stereo unspecified)	-9.17
CC(C)(C(=O)NCc1ccccc1F)n1cc(Br)cn1	-6.29
NC(=O)c1ccc(C(=O)N2CCCCC2C2OCCO2)cc1 (stereo unspecified)	-10.6
CN(C1CCN(c2ccccn2)CC1)S(=O)(=O)c1cccs1	-8.7
Cn1c(=O)ccn(CC(=O)Nc2cccnc2)c1=O	12.6
Cc1nn(C)c(N(C)C)c1CNCc1ccnn1C	-5.03
Cc1cnc(CN2CCN(C(C)c3nc(C(C)C)no3)CC2)cn1 (stereo unspecified)	-6.56
O=C(COCC1CC1)N1CCN(C(=O)Cc2ccccn2)CC1	-1.46
c1ccc(Cc2noc(CN3CCCCC3C3OCCO3)n2)cc1 (stereo unspecified)	-2.71
COc1ccc(OCC(=O)NS(=O)(=O)c2cc(C)ccc2C)cc1	-6.75

Compound	cytotoxicity at 70.5 h [%]
N#Cc1ccc(SCCCO)c(F)c1	-5.69
COCc1nccc(C2CCCN(Cc3cccc(F)c3)C2)n1 (stereo unspecified)	0.742
O=C(c1ccc(Cl)c(Cl)c1)N1CCCCC1C1OCCO1 (stereo unspecified)	-4.22
CC(C)c1nn(C)c(N(C)C)c1CNCc1ccnn1C	18
CCNC(=O)CN1CCC(c2cc(OC)cc(OC)c2)C1 (stereo unspecified)	-10.7
CC(C)N(Cc1cccc(Cl)c1)Cc1nnsc1Cl	-2.95
CCN(CC1CCOC1)C(=O)c1ccc(COc2ccccc2C#N)o1 (stereo unspecified)	-3.17
COCCNS(=O)(=O)c1ccc(Cl)c(C(=O)N(C)Cc2ccsc2)c1	-5.32
CS(=O)(=O)NCC1CCCN(c2ccc(C#N)cn2)C1 (stereo unspecified)	-8.07
CS(=O)(=O)NC1CCCN(c2ccc(C#N)cn2)C1 (stereo unspecified)	-6.77
O=C(NCCNc1ncccn1)N1CCc2ccccc2C1	8.69
CCN(Cc1ccc2c(c1)OCO2)C(=O)c1ccc(=O)n(C)c1	-0.838
CCOc1cccc(CNc2cncc(-n3cccn3)n2)c1	-8.59
Fc1cccc(CNc2cncc(-n3cccn3)n2)c1	-6.71
N#Cc1ccccc1N1CCCN(CC(=O)Nc2ccc(Cl)cn2)CC1	-2.38
Cn1c(NC(=O)CCS(=O)(=O)C2CCCC2)nc2cc(Cl)ccc21	-9.03
O=C(CC1CCCC1)NCCn1nc2ccccn2c1=O	-2.13
CC1CCN(C(=O)C2CCCN(C(=O)Nc3ccccn3)C2)CC1 (stereo unspecified)	-9.24
Cc1nn(C)c2ncc(S(=O)(=O)N3CCCN4CCCC4C3)cc12 (stereo unspecified)	-2.09
Cc1nn(C)c2ncc(S(=O)(=O)N3CCCC(C(N)=O)C3)cc12 (stereo unspecified)	-6.46
